Common to all, as to assay type: functional
Experiment [1] deals with Rhizoctonia solani. Briefly: Fungicidal activity against Rhizoctonia solani assessed as level-2 black scurf infected potato Nicola progeny tubers using 25% active ingredient containing compound treated potato seeds under field trial conditions (reference value: 17.9%).
Experiment [2] has as its system Rhizoctonia solani. Briefly: Fungicidal activity against Rhizoctonia solani assessed as level-1 black scurf infected potato Nicola progeny tubers using 25% active ingredient containing compound treated potato seeds and in-furrow compound application under field trial conditions (reference value: 0.0%).
Experiment [3] relates to Rhizoctonia solani. Briefly: Fungicidal activity against Rhizoctonia solani assessed as level-2 black scurf infected potato Nicola progeny tubers using in-furrow application of 25% active ingredient containing compound under field trial conditions (reference value: 17.9%).
For experiment [4], the system named is Rhizoctonia solani. Briefly: Fungicidal activity against Rhizoctonia solani assessed as level-3 black scurf infected potato Nicola progeny tubers using 25% active ingredient containing compound treated potato seeds under field trial conditions (reference value: 22.4%).
Experiment [5] deals with Rhizoctonia solani. Briefly: Fungicidal activity against Rhizoctonia solani assessed as level-3 black scurf infected potato Nicola progeny tubers using in-furrow application of 25% active ingredient containing compound under field trial conditions (reference value: 22.4%).
The subject of experiment [6] is Rhizoctonia solani. The experiment can be described thus: Fungicidal activity against Rhizoctonia solani assessed as level-1 black scurf infected potato Nicola progeny tubers using 25% active ingredient containing compound treated potato seeds under field trial conditions (reference value: 0.0%).
Experiment [7] has as its system Rhizoctonia solani. The experiment can be described thus: Fungicidal activity against Rhizoctonia solani assessed as level-3 black scurf infected potato Nicola progeny tubers using 25% active ingredient containing compound treated potato seeds and in-furrow compound application under field trial conditions (reference value: 22.4%).
The subject of experiment [8] is Rhizoctonia solani. The experiment can be described thus: Fungicidal activity against Rhizoctonia solani assessed as level-4 black scurf infected potato Nicola progeny tubers using 25% active ingredient containing compound treated potato seeds under field trial conditions (reference value: 59.7%).
The test system of experiment [9] is Rhizoctonia solani. The experiment can be described thus: Fungicidal activity against Rhizoctonia solani assessed as level-4 black scurf infected potato Nicola progeny tubers using 25% active ingredient containing compound treated potato seeds and in-furrow compound application under field trial conditions (reference value: 59.7%).
Experiment [10] has as its system Rhizoctonia solani. Briefly: Fungicidal activity against Rhizoctonia solani assessed as level-2 black scurf infected potato Nicola progeny tubers using 25% active ingredient containing compound treated potato seeds and in-furrow compound application under field trial conditions (reference value: 17.9%).
Experiment [11] concerns Rhizoctonia solani. Briefly: Fungicidal activity against Rhizoctonia solani assessed as level-4 black scurf infected potato Nicola progeny tubers using in-furrow application of 25% active ingredient containing compound under field trial conditions (reference value: 59.7%).
In experiment [12] the test system is Rhizoctonia solani. The experiment can be described thus: Fungicidal activity against Rhizoctonia solani assessed as level-1 black scurf infected potato Nicola progeny tubers using in-furrow application of 25% active ingredient containing compound under field trial conditions (reference value: 0.0%).

Structures are written as SMILES.

As for `CO/C=C(\C(=O)OC)c1ccccc1Oc1cc(Oc2ccccc2C#N)ncn1` [Azoxystrobin], the Activity in experiment [1] worked out at 90%; in experiment [2], 16.7%; in [3], 31%; in experiment [4], 0.01%; in experiment [5], 69%; in experiment [6] it was 0.01%. Besides, the Activity in experiment [7] is recorded as 0.01%; in experiment [8], 10%; in experiment [9] it was 0.01%; in experiment [10] it was 83.3%; in [11] it was 0.01%; in [12], 0.01%.
`O=C(Nc1ccccc1)N(Cc1ccc(Cl)cc1)C1CCCC1` [PENCYCURON]: the Activity amounted to 70.8% in [1], 19.7% in [4], 8.1% in experiment [6] and 1.4% in experiment [8].

Source of the values: ChEMBL document CHEMBL3045516, “Field study of the relative susceptibility of eleven potato (Solanum tuberosum L.) varieties and the efficacy of two fungicides against Rhizoctonia solani attack” (2010).
